The source made the active and inactive calls.
Legend:
[1] = test system: HEK293; assay: optical interference in Abeta FP readout, dose response, artefact control for IDE activator project, biochemical, fluorescence polarization (AID 588442); format: functional, cell-based; settings: Homo sapiens
[2] = test system: HEK293; assay: membrane integrity loss in HEK cells – cell-based, fluorescence, cytotoxicity control for IDE activator project, dose response (AID 588440); format: functional; settings: Homo sapiens;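 further: cytotoxicity by LDH release measuring loss of membrane integrity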
[3] = target: Caspase-7 (Homo sapiens, UniProt P55210); assay: caspase-7 enzyme inhibition, selectivity check – biochemical, DEVD-R110 fluorescence, cherry-pick, selectivity assay for caspase-6 inhibitor project, dose response (AID 743295); format: functional
[4] = target: ORF 73 (Human herpesvirus 8, UniProt O40947); assay: KSHV LANA DNA-binding disruption – biochemical, fluorescence polarization, cherry-picked samples, dose response (AID 504725); design: species or system Human gammaherpesvirus 8;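 further: fluorescence polarization of a labeled DNA duplex reporting LANA DNA binding; potency is for inhibitors that block LANA binding to the DNA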
[5] = target: Casein kinase II subunit alpha (Homo sapiens, UniProt P68400); format: functional
[6] = target: Proto-oncogene tyrosine-protein kinase ROS (Homo sapiens, UniProt P08922); format: functional;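 further: ROS1 tested as one member of a kinome-wide kinase panel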
[7] = target: Mitogen-activated protein kinase 1 (Homo sapiens, UniProt P28482); format: functional
[8] = target: Mitogen-activated protein kinase kinase kinase 20 (Homo sapiens, UniProt Q9NYL2); format: functional
[9] = target: Serine/threonine-protein kinase pim-3 (Homo sapiens, UniProt Q86V86); format: functional;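 further: value obtained as one member of a broad kinase panel profiling effort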
[10] = target: Proto-oncogene tyrosine-protein kinase Src (Homo sapiens, UniProt P12931); format: functional;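 further: SRC entry within a kinome-wide kinase profiling panel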
[11] = target: Receptor tyrosine-protein kinase erbB-4 (Homo sapiens, UniProt Q15303); format: functional;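 further: ERBB4 member of a kinome-wide kinase profiling panel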
[12] = target: Receptor tyrosine-protein kinase erbB-2 (Homo sapiens, UniProt P04626); assay: Navigating the Kinome. Panel member name: ERBB2; format: functional
[13] = target: Serine/threonine-protein kinase DCLK1 (Homo sapiens, UniProt O15075); format: functional;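 further: affinity for DCLK1 (listed as DCAMKL1) measured as one member of a kinome-wide kinase profiling panel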
[14] = target: Serine/threonine-protein kinase PLK4 (Homo sapiens, UniProt O00444); format: functional;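 further: PLK4 measured as one member of a kinome-wide kinase profiling panel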
[15] = target: Ribosomal protein S6 kinase beta-1 (Homo sapiens, UniProt P23443); format: functional;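 further: measured as one member of a kinome-wide profiling panel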
[16] = target: STE20-like serine/threonine-protein kinase (Homo sapiens, UniProt Q9H2G2); format: functional
[17] = target: Serine/threonine-protein kinase 3 (Homo sapiens, UniProt Q13188); format: functional;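 further: measured as one member of a kinome-wide kinase panel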
[18] = target: MAP/microtubule affinity-regulating kinase 3 (Homo sapiens, UniProt P27448); format: functional;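 further: MARK3 affinity measured as one member of a kinome panel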
[19] = target: 3-phosphoinositide-dependent protein kinase 1 (Homo sapiens, UniProt O15530); format: functional;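 further: value comes from the Navigating the Kinome panel, PDPK1 member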
[20] = target: Calcium/calmodulin-dependent protein kinase type II subunit gamma (Homo sapiens, UniProt Q13555); format: functional
[21] = target: SRSF protein kinase 1 (Homo sapiens, UniProt Q96SB4); format: functional;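 further: measured as one member of a kinome-wide kinase profiling panel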
[22] = target: Ribosomal protein S6 kinase alpha-3 (Homo sapiens, UniProt P51812); format: functional;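 further: measured within a kinome-wide profiling panel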
[23] = target: Calcium/calmodulin-dependent protein kinase type II subunit delta (Homo sapiens, UniProt Q13557); format: functional
[24] = target: Casein kinase I isoform delta (Homo sapiens, UniProt P48730); format: functional;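 further: measured as one member (CSNK1D) of a kinome panel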
[25] = target: Dual specificity tyrosine-phosphorylation-regulated kinase 4 (Homo sapiens, UniProt Q9NR20); format: functional
[26] = target: Serine/threonine-protein kinase Chk2 (Homo sapiens, UniProt O96017); format: functional;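 further: CHEK2 entry within a kinome-wide screening panel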
[27] = target: Protein kinase C delta type (Homo sapiens, UniProt Q05655); format: functional
[28] = target: Tyrosine-protein kinase Blk (Homo sapiens, UniProt P51451); format: functional;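 further: obtained as one member of a kinome-wide kinase assay panel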
[29] = target: Vascular endothelial growth factor receptor 3 (Homo sapiens, UniProt P35916); format: functional;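 further: value from a kinome-wide profiling panel, with FLT4 as the panel member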
[30] = target: Protein kinase C gamma type (Homo sapiens, UniProt P05129); format: functional
[31] = target: Tyrosine-protein kinase SYK (Homo sapiens, UniProt P43405); format: functional
[32] = target: Rho-associated protein kinase 2 (Homo sapiens, UniProt O75116); format: functional
[33] = target: Cyclin-dependent kinase 2 (Homo sapiens, UniProt P24941); format: functional;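 further: CDK2 measured as one member of a broad kinome profiling panel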
[34] = target: Cell division cycle 7-related protein kinase (Homo sapiens, UniProt O00311); format: functional;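 further: value obtained from a kinome-wide kinase panel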
[35] = target: Serine/threonine-protein kinase PLK1 (Homo sapiens, UniProt P53350); format: functional;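 further: PLK1 measured as one member of a kinome-wide profiling panel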
[36] = target: Tyrosine-protein kinase FRK (Homo sapiens, UniProt P42685); format: functional;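 further: FRK tested as one member of a kinome panel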
[37] = target: Homeodomain-interacting protein kinase 2 (Homo sapiens, UniProt Q9H2X6); format: functional;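 further: measured within a kinome-wide kinase profiling panel, HIPK2 being one panel member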
[38] = target: Leucine-rich repeat serine/threonine-protein kinase 2 (Homo sapiens, UniProt Q5S007); format: functional;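 further: value from a broad kinome-wide panel profiling study in which LRRK2 was one of the kinases tested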
[39] = target: Tyrosine-protein kinase Lck (Homo sapiens, UniProt P06239); format: functional;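 further: lck was assayed as one member of a kinase panel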

Ribosomal protein S6 kinase alpha-3, sequence (P51812 whole entry): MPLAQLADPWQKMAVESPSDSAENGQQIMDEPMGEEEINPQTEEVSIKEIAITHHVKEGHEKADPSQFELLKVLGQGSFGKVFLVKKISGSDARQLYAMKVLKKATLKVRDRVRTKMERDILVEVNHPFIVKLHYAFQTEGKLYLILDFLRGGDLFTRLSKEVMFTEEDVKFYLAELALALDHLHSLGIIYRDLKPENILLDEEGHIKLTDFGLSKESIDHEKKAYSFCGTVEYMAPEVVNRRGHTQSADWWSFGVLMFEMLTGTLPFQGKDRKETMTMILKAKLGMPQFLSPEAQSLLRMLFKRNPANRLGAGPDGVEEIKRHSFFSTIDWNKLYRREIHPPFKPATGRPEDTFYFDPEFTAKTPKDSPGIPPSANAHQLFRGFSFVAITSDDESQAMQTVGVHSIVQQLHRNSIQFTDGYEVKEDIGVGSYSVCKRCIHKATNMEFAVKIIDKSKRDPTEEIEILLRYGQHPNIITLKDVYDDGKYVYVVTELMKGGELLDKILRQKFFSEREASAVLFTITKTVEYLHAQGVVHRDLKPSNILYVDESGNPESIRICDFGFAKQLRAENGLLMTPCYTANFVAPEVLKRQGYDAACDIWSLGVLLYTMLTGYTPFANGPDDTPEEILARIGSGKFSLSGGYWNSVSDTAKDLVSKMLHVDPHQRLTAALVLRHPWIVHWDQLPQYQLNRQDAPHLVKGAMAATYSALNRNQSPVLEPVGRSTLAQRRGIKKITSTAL
STE20-like serine/threonine-protein kinase, sequence (Q9H2G2 whole entry): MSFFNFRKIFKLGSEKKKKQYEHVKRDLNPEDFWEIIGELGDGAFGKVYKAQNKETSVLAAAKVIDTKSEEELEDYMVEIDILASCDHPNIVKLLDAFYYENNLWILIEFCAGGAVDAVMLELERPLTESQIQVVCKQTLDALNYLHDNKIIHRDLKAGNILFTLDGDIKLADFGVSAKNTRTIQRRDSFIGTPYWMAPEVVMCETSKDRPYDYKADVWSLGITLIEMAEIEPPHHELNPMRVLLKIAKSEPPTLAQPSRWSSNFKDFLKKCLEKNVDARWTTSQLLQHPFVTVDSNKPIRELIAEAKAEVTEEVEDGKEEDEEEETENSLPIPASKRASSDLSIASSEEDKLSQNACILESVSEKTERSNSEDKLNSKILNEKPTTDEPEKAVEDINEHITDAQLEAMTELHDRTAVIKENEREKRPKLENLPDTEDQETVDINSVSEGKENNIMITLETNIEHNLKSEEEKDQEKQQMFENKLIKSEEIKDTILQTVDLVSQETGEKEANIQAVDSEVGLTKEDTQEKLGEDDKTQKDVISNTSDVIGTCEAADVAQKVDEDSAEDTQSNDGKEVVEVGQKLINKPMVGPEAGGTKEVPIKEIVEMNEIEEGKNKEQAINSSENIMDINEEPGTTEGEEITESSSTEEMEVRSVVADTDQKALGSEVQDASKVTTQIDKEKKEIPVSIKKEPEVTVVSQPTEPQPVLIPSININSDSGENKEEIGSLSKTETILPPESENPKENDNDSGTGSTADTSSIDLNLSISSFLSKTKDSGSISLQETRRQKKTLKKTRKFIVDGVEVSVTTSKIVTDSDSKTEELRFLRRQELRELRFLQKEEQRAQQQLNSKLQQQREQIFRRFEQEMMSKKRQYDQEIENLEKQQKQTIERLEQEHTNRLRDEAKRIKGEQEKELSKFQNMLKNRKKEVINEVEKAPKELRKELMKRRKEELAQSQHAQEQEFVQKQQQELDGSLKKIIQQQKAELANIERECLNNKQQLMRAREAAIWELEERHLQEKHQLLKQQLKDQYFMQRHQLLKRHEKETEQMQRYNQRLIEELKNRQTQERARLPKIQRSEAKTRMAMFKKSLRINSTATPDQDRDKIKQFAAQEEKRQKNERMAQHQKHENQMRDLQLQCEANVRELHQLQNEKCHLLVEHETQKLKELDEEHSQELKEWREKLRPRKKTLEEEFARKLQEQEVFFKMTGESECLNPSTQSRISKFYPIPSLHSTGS
Serine/threonine-protein kinase PLK1, sequence (P53350 whole entry): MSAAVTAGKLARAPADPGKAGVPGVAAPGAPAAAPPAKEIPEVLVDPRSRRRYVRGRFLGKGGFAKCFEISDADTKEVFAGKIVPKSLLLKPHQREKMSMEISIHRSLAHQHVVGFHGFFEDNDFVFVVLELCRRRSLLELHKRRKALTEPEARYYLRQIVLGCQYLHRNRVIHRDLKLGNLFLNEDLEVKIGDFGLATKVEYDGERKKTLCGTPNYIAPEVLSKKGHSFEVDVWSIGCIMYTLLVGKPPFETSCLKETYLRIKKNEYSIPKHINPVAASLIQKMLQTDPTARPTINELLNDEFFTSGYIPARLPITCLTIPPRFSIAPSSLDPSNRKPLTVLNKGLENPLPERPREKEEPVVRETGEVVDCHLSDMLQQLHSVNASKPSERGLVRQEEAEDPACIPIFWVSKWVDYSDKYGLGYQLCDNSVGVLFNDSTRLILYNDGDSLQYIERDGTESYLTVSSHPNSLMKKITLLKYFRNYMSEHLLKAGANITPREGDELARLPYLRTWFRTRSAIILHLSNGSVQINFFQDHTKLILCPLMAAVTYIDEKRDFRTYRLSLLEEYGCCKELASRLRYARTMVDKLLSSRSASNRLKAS
Serine/threonine-protein kinase 3, sequence (Q13188 whole entry): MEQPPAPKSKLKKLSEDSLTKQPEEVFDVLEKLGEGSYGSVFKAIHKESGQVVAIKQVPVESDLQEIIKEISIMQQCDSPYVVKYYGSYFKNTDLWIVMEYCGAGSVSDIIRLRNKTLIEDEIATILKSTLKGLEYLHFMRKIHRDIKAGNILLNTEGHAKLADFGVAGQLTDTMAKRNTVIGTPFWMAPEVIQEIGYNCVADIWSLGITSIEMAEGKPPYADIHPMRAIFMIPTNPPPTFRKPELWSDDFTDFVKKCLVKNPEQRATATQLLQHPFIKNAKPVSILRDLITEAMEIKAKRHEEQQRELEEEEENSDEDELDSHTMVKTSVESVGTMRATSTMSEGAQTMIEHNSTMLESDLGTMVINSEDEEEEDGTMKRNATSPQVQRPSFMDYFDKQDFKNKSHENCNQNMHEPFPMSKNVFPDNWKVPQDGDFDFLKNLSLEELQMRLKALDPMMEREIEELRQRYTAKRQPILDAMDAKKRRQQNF
Vascular endothelial growth factor receptor 3, sequence (P35916 whole entry): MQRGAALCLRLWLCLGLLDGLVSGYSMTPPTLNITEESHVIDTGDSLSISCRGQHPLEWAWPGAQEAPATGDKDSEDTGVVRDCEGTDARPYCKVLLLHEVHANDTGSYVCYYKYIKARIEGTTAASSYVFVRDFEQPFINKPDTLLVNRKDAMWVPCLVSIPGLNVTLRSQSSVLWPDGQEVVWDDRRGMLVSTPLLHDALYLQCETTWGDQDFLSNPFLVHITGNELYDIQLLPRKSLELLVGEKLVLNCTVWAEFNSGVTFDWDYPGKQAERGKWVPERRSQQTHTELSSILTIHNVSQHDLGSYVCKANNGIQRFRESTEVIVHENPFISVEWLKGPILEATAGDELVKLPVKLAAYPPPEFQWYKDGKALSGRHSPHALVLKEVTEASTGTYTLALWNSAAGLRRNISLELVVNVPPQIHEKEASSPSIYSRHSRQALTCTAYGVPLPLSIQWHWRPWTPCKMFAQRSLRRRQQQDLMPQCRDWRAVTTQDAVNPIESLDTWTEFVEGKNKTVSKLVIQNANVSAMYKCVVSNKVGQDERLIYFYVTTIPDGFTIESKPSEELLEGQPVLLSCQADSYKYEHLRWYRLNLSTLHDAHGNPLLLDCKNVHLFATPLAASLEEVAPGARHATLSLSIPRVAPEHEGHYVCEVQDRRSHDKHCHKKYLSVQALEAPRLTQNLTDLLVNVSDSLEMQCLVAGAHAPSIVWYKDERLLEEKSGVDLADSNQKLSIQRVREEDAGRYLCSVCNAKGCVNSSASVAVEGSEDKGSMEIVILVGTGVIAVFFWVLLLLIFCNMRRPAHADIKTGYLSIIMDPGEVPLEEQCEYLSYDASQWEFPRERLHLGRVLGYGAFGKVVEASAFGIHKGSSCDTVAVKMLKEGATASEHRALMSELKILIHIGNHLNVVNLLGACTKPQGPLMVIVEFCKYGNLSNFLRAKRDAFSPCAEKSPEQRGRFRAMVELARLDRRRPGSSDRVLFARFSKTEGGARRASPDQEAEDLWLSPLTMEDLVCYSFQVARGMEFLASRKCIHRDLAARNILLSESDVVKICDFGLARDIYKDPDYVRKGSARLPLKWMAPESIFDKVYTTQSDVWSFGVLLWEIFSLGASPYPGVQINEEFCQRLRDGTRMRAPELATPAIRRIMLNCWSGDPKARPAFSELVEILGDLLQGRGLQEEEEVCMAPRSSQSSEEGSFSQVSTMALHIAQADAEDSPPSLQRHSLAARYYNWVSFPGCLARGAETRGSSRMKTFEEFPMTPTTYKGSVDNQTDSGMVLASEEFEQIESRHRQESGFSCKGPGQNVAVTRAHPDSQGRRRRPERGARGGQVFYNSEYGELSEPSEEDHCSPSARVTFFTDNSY
Mitogen-activated protein kinase 1, sequence (P28482 whole entry): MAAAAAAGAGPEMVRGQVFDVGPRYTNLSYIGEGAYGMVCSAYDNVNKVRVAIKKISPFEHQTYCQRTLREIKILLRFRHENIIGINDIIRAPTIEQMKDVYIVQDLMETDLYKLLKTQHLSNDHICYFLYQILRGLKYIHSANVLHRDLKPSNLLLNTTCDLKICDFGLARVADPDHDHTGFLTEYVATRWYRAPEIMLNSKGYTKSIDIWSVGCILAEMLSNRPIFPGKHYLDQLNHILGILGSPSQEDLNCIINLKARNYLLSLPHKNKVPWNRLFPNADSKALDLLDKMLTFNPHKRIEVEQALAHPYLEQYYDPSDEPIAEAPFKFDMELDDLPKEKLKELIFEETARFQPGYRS

In the case of `CCN(CC)CCCC(C)n1c2nc(=O)[nH]c(=O)c-2nc2cc(Cl)ccc21` (stereo not drawn), the EC50 [1] is reported as > 54700 nM (inactive), the IC50 [2] is reported as > 89200 nM (inactive) and the AC50 [3] is reported as 899 nM (active). For the same compound, the AC50 [4] was 370 nM (active).

With `OC1CCC(Nc2nc(Cl)cc(-c3c[nH]c4ncccc34)n2)CC1` (stereo not drawn) the Ki [5] was 158 nM (active), the pKi [5] was 6.8 and the Ki [6] was 158 nM (active). For the same compound, the pKi [6] was 6.8, the Ki [7] was 50.1 nM (active) and the pKi [7] was 7.3. For the same compound, the Ki [8] was > 7940 nM (inactive), the Ki [9] was 3160 nM (active) and the pKi [9] was 5.5. For the same compound, the Ki [10] was > 2000 nM (inactive), the Ki [11] was > 3980 nM (inactive) and the Ki [12] was > 1580 nM (inactive). For the same compound, the Ki [13] was > 10000 nM (inactive), the Ki [14] was > 3980 nM (inactive) and the Ki [15] was 100 nM (active). The pKi [15] was 7, the Ki [16] was 501 nM (active) and the pKi [16] was 6.3. The Ki [17] was 50.1 nM (active), the pKi [17] was 7.3 and the Ki [18] was 50.1 nM (active). For the same compound, the pKi [18] was 7.3, the Ki [19] was 501 nM (active) and the pKi [19] was 6.3. For the same compound, the Ki [20] was 31.6 nM (active), the pKi [20] was 7.5 and the Ki [21] was 1000 nM (active). For the same compound, the pKi [21] was 6, the Ki [22] was 100 nM (active) and the pKi [22] was 7. The Ki [23] was 63.1 nM (active), the pKi [23] was 7.2 and the Ki [24] was 20 nM (active). The pKi [24] was 7.7, the Ki [25] was 3160 nM (active) and the pKi [25] was 5.5. For the same compound, the Ki [26] was > 1580 nM (inactive), the Ki [27] was 63.1 nM (active) and the pKi [27] was 7.2. The Ki [28] was > 1580 nM (inactive), the Ki [29] was 200 nM (active) and the pKi [29] was 6.7. For the same compound, the Ki [30] was 200 nM (active), the pKi [30] was 6.7 and the Ki [31] was 1000 nM (active). The pKi [31] was 6, the Ki [32] was > 3.98 nM (inactive) and the Ki [33] was 12.6 nM (active). The pKi [33] was 7.9, the Ki [34] was 0.158 nM (active) and the pKi [34] was 9.8. The Ki [35] was 251 nM (active), the pKi [35] was 6.6 and the Ki [36] was 398 nM (active). The pKi [36] was 6.4, the Ki [37] was 31.6 nM (active) and the pKi [37] was 7.5.

In the case of `COc1cccc(CNC(=O)c2cnc(-c3ccncc3)nc2)c1`, the Ki [38] is reported as > 2510 nM (inactive) and the Ki [39] is reported as > 6310 nM (inactive).
